Test results published in patent publication US11364203B2, “Process for forming active domains dispersed in a matrix” (Bend Research, Inc., priority 2014, dated 2022).
In brackets after ≈: the same amount, converted by molar mass.

Tests used:
Solubility in water = format: physicochemical
Solubility in acetone = format: physicochemical; details: acetone at 25° C.

solubility in water (in words) (Solubility in water; water): practically insoluble in water | solubility (Solubility in water; water at 25° C.): < 1 µg/mL | solubility in acetone (Solubility in acetone): 9000 µg/mL (≈ 18 mM)
SMILES: CCC(=O)O[C@]1(C(=O)SCF)[C@H](C)C[C@H]2[C@@H]3C[C@H](F)C4=CC(=O)C=C[C@]4(C)[C@@]3(F)[C@@H](O)C[C@@]21C [Fluticasone, (6S,8S,9R,10S,11S,13S,14S,16R,17R)-6,9-difluoro-17-(((fluoromethyl)thio)carbonyl)-11-hydroxy-10,13,16-trimethyl-3-oxo-6,7,8,9,10,11,12,13,14,15,16,17-dodecahydro-3H-cyclopenta[a]phenanthren-17-yl propionate]
